Laboratory results taken from BigSolDB 2.1.

CCc1nc(N)nc(N)c1-c1ccc(Cl)cc1
solubility (mole fraction)
Conditions	278.15 K	283.15 K	288.15 K	293.15 K	298.15 K	303.15 K	308.15 K	313.15 K	318.15 K
in acetone	0.0011	0.00125	0.00147	0.00171	0.0019	0.00215	0.00241	0.00272	0.0033
in acetonitrile	9.12e-05	0.000108	0.000148	0.000198	0.00027	0.000383	0.000469	0.000596	0.000765
in ethanol	0.000603	0.000809	0.000972	0.00109	0.00123	0.00147	0.00181	0.0022	0.00254
in ethyl acetate	0.00141	0.00151	0.0017	0.00194	0.00218	0.00246	0.0029	0.00334	0.00389
in isobutanol	0.000678	0.000904	0.0011	0.00125	0.0014	0.00167	0.00198	0.00238	0.00274
in isopropanol	0.000234	0.000323	0.000456	0.00057	0.000709	0.000853	0.00104	0.00125	0.00152
in isopropyl acetate	0.000583	0.000717	0.000861	0.00107	0.00129	0.00155	0.00185	0.00226	0.00259
in methanol	0.000854	0.0011	0.00131	0.00151	0.00176	0.00203	0.00237	0.00278	0.00332
in methyl acetate	0.000372	0.000482	0.000615	0.000811	0.00105	0.00127	0.00158	0.00186	0.0023
in n-butanol	0.000802	0.000993	0.00124	0.00141	0.00164	0.00192	0.00227	0.00263	0.00317
in n-propanol	0.000712	0.000936	0.00118	0.00135	0.00152	0.00179	0.00211	0.00252	0.00298
in n-propyl acetate	0.000822	0.000952	0.00111	0.00136	0.00154	0.0018	0.0021	0.00243	0.00289
in sec-butanol	0.000398	0.000554	0.000662	0.000824	0.00106	0.0013	0.00164	0.00198	0.00227
